Test results published in patent US4275066A, “Antireproductive tricyclic ortho-fused nitrogen containing compounds” (Gruppo Lepetit S.p.A., priority 1979, dated 1981).

Assays:
[1] = system: female Syrian golden hamsters; experiment: post-coital-post-implantation antifertility activity, s.c., hamsters; assay type: in vivo, Syrian golden hamster; conditions: Mesocricetus auratus, sc, sesame oil containing 20% benzyl benzoate, daily for 5 days (days 4-8 of pregnancy), autopsy day 14, read-out: ED50 (100% activity, absence of live fetuses, in 50% of the animals)
Method: (§1) Representative experiments for assessing antifertility activity were carried out with female Syrian golden hamsters weighing 100 to 130 g. The animals were mated and the presence of sperm in the vagina was taken as evidence of mating. The day sperm was detected was considered day one of pregnancy, since in our laboratories and those of other investigators 90 to 100% of animals that mate as evidenced by vaginal sperm are pregnant.
(§2) Pregnancy was later confirmed at the time of autopsy by presence of fetuses or implantation sites in the uterus. Even if an animal aborts the fetus, implantation scars still remain as evidence that the animal has been pregnant. […] The animals were autopsied on day 14 of pregnancy and the uteri were examined for evidence of pregnancy (implantation sites, fetal resorptions or live fetuses), hemorrhage, and evidence of abnormalities of the uterus, placenta or fetuses. A compound was considered to be active if there was a reduction of live fetuses in at least 60% of the treated animals and the presence of implantation sites proves the animal to have been pregnant.
The compounds were then studied for dose-activity relationships and the corresponding ED50 values i.e., 100% activity (absence of live fetuses) in 50% of the animals, were also determined. The following Table reports the ED50 values of some representative compounds of the invention: […]

hamsters [2] = experiment: antifertility activity by intravaginal route, hamsters; assay type: in vivo, hamster; conditions: Mesocricetus auratus
hamsters [3] = experiment: antifertility activity by oral route, hamsters; assay type: in vivo, hamster; conditions: Mesocricetus auratus, p.o.
Method: as §1, §2
The compounds were then studied for dose-activity relationships and the corresponding ED50 values i.e., 100% activity (absence of live fetuses) in 50% of the animals, were also determined. The following Table reports the ED50 values of some representative compounds of the invention:
Favorable results were also obtained by administering the compounds of the invention by oral route. The experiments for assessing this property were carried out on hamsters following the same procedures as above, with the obvious exception that the compounds were administered orally instead of subcutaneously.

[4] = system: female Sprague-Dawley rats; experiment: anti-reproductive activity, s.c., rats; assay type: in vivo, Sprague-Dawley rat; conditions: Rattus norvegicus, sc, five consecutive days from day 6 of pregnancy, autopsy day 16
Method: The same criteria and experimental conditions as above were also applied when the anti-reproductive activity of the compounds of the invention was investigated in other animal species such as, for instance, rats, dogs, monkeys and baboons.
In representative experiments, female Sprague-Dawley rats weighing from 200 to 300 g. were treated subcutaneously with a dosage of 20 mg/kg of the compound to be tested, dissolved in sesame oil containing 20% of benzyl benzoate, for five consecutive days starting from day 6 of pregnancy.

| SMILES | ED50 [1] | ED50 (hamsters [2]) | ED50 (hamsters [3]) | ED50 [4] |
| --- | --- | --- | --- | --- |
| c1ccc(-c2ccc(-c3nc4c5ccccc5ccn4n3)cc2)cc1 [Example 1, 2-[(1,1'-Biphenyl)-4-yl]-1,2,4-triazolo[5,1-a]isoquinoline] | 0.015 mg/kg | ~0.2 mg/kg | 0.2 mg/kg | 0.55 mg/kg |
| c1ccc(-c2ccc(-c3nc4n(n3)CCc3ccccc3-4)cc2)cc1 [Example 3, 2-[(1,1'-Biphenyl)-4-yl]-5,6-dihydro-1,2,4-triazolo[5,1-a]isoquinoline] | 0.05 mg/kg | – | 0.5 mg/kg | – |
| c1ccc(-c2ccc(-c3nc4n(n3)Cc3ccccc3-4)cc2)cc1 [Example 4, 2-[(1,1'-Biphenyl)-4-yl]-5H-1,2,4-triazolo[5,1-a]isoindole] | 0.7 mg/kg | – | – | – |
| c1ccc(-c2ccc(-c3cn4ccc5ccccc5c4n3)cc2)cc1 [Example 6, 2-[(1,1'-Biphenyl)-4-yl]-imidazo[2,1-a]isoquinoline] | 0.02 mg/kg | – | 0.3 mg/kg | – |
